In publication PMC10955247, “In vivo screening for toxicity-modulating drug interactions identifies antagonism that protects against ototoxicity in zebrafish” (Frontiers in Pharmacology, 2024):
Counter-ions that a name gives are not always drawn.

System: zebrafish lateral line hair cells
Test: Lateral line hair cell intracellular calcium imaging and cell death
Assay type: in vivo
Description: For calcium testing, zebrafish expressing HC-specific GCaMP targeted to the inner mitochondrial matrix were crossed with fish expressing a HC specific calcium indicator to create double-transgenic embryos (Tg (myo6b:mitoGCaMP3;myo6b:cytoRGECO), Table 1) with both green fluorescent mitochondrial calcium and red fluorescent cytosolic calcium indicators, then raised as described previously ([McQuate et al., 2023]). Zebrafish embryos were collected from 2-h spawning periods and raised in Petri dishes in embryo medium (EM: 14.97 mM NaCl, 500 μM KCl, 42 µM Na2HPO4, 150 µM KH2PO4, 1 mM CaCl2 dehydrate, 1 mM MgSO4, 0.714 mM NaHCO3, pH 7.2) at a density of 60 larvae per […] dish, in a dark 28.5°C incubator until 5 dpf. Larvae were screened for indicator expression at 4 dpf.
Calcium imaging was performed using an inverted Marianas spinning disk confocal system (Intelligent Imaging Innovations, 3i) with an Evolve 10 MHz EMCCD camera (Photometrics) and a Zeiss C-Apochromat 63x/1.2 numerical aperture water objective. Larvae were 5-6 dpf at the time of imaging. Larvae were first anesthetized in embryo media containing 800 µM tricaine, then stabilized on their sides under a harp, so that posterior neuromasts were exposed to the surrounding media. Imaging was performed at ambient temperature, approximately 25°C. GCaMP fluorescence was acquired with a 488 nm laser and 535/30 emission filter, with an exposure time of 100 ms, and RGECO fluorescence was acquired with a 561 nm laser and 617/73 emission filter and exposure time of 200 ms. Images were taken every 2 minutes as z-stacks through neuromasts in 2 µm steps. Neomycin and azithromycin were dissolved as a 4X stock in EM (described in Section 2.1: Zebrafish Husbandry), then added to the bath to achieve final working concentration after a 10-min baseline. Imaging of neuromasts continued for 50 min. Images were analyzed in ImageJ. Mean fluorescence intensity was measured for ROIs of individual randomly selected HCs (2–3 HCs per NM, see example ROI in Figure 4). For each HC, values were normalized to the average of baseline using Microsoft Excel.

For `NC[C@@H]1O[C@H](O[C@H]2[C@@H](O)[C@H](O[C@@H]3[C@@H](O)[C@H](N)C[C@H](N)[C@H]3O[C@H]3O[C@H](CN)[C@@H](O)[C@H](O)[C@H]3N)O[C@@H]2CO)[C@H](N)[C@@H](O)[C@@H]1O` [Neomycin, Neomycin sulfate hydrate], the “HC mitochondrial and cytoplasmic calcium response” value (NEO 50 µM, AZM 190 µM, mitoGCaMP3, cytoRGECO larvae) was “induced an increase in mitochondrial”, the “HCs that went on to die, of those analyzed” value (NEO alone 50 µM) was 66% and the “cells that went on to die” value (drug alone, calcium imaging) was 14/21.
